# Test results from publication PMC8296573, “Synthesis and Biological Evaluation of Fingolimod Derivatives as Antibacterial Agents” (ACS Omega, 2021).
# Like-named read-outs stand apart in the source and are kept apart here.
# Columns and labels:
# [1] = system: S. aureus ATCC 25923; assay: Antibacterial activity, pre-exposure (planktonic cells and biofilm formation); assay type: cell-based, Staphylococcus aureus; conditions: for MIC / inhibition at 5 µM / inhibition at 10 µM / inhibition at 15 µM / inhibition at 25 µM: Staphylococcus aureus, ATCC25923; for inhibition at 5 µM / inhibition at 10 µM / inhibition at 15 µM / inhibition at 25 µM / Average inhibition %, biofilms viability / Average inhibition %, planktonic cells viability: pre-exposure, ± SD
# In short: (§1)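 Pre-exposure format: compounds added with bacteria, 18 h aerobic at 37 °C with shaking. Planktonic growth read by OD and resazurin (20 μM final) fluorescence; biofilms by resazurin viability then crystal violet biomass (A595). Resazurin incubation time/temperature varied by species.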
# [2] = system: S. aureus ATCC 25923; assay: Antibacterial activity, post-exposure on preformed 18-h-old biofilms; assay type: cell-based, Staphylococcus aureus; conditions: ± SD; for inhibition at 25 µM / inhibition at 50 µM / inhibition at 100 µM / inhibition at 200 µM: Staphylococcus aureus; for inhibition at 25 µM: ATCC25923, 25 µM; for inhibition at 50 µM: ATCC25923, 50 µM; for inhibition at 100 µM: ATCC25923, 100 µM; for inhibition at 200 µM: ATCC25923, 200 µM
# In short: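 Biofilms grown 18 h without compound, medium then replaced and compound added for a further 24 h. Planktonic OD and resazurin (20 μM final) fluorescence (ex 560/em 590 nm) read; washed biofilms stained with 20 μM resazurin 30 min at 37 °C, then ethanol-fixed and crystal violet-stained, absorbance 595 nm.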
# [3] = system: S. aureus ATCC 12598; assay: Antibacterial activity, pre-exposure; assay type: cell-based, Staphylococcus aureus; conditions: Staphylococcus aureus, ATCC12598; pre-exposure, 18 h; read-out: MIC S. aureus ATCC 12598
# Description: The antimicrobial activity was assessed in a similar way for the initial screening and the dose–response evaluation against different bacterial strains. With the exception of the post-exposure experiment, the compounds were added to the wells along with the bacteria to test the ability of compounds to prevent bacterial growth and biofilm formation (pre-exposure). The compounds were diluted in DMSO and plated directly in 96-well plates before adding the bacterial culture, and plates were incubated for 18 h under aerobic conditions at 37 °C with shaking (220 rpm). The antibacterial activity of the compounds was assessed on planktonic cells and biofilms separately using two different measurements for each: optical density (turbidity) and resazurin reduction (viability) on planktonic cells and resazurin followed by a crystal violet staining assay (total biomass) on biofilms, as described in the following sections.
# The resazurin staining was performed according to the protocol previously optimized with a few modifications.[46] Briefly, the planktonic solution was first transferred into a new 96-well plate and the OD of the planktonic solution was measured using a Varioskan LUX Multimode microplate reader (Thermo Scientific, Vantaa, Finland). Then, 10 μL of a 400 μM resazurin (R7017, Sigma-Aldrich, St. Louis, MO) diluted in phosphate-buffered saline (PBS) (Thermo Fisher Scientific, MA) was added to the wells (for a final resazurin concentration of 20 μM). The plate was incubated in the dark with shaking (220 rpm) for about 3–10 min at room temperature with S. aureus and A. baumannii (until the bacteria controls turned pink) or for 20 min at 37 °C with P. aeruginosa. Fluorescence was measured at λex = 560 nm and λem = 590 nm using the top optics of the Varioskan LUX Multimode microplate reader. The planktonic plate was then discarded. The original challenge plate containing the biofilms was washed once with PBS, and 200 μL of a 20 μM resazurin solution was added to the wells. The plate was incubated in the dark at 37 °C with shaking (220 rpm) for 30 min with S. aureus, 60 min with A. baumannii, and 90 min with P. aeruginosa. Fluorescence was measured as described for the planktonic solution. The biofilms were next treated with crystal violet staining.
# After removing the resazurin solution from the plate, biofilms were fixed with ethanol 100% for 15 min at room temperature. Ethanol was then removed, and the biofilms were left to air-dry completely at RT. Crystal violet, diluted to 1:100 in deionized water from the 2.3% commercial solution (HT90132, Sigma-Aldrich, St. Louis, MO), was added to the wells and, after a 5 min incubation with the dye, the biofilms were washed twice with deionized water and left to air-dry for about 10 min. The dye was solubilized in ethanol 100% for 1 h, and absorbance was measured at 595 nm using a Multiskan Sky microplate spectrophotometer (Thermo Scientific, Vantaa, Finland).
# [4] = system: A. baumannii NCTC 13423; assay: Antibacterial activity, pre-exposure; assay type: cell-based, Acinetobacter baumannii; conditions: for Average inhibition %, biofilms viability / Average inhibition %, planktonic cells viability / inhibition at 10 µM / inhibition at 15 µM / inhibition at 25 µM / inhibition at 50 µM: A. baumannii NCTC 13423, pre-exposure, ± SD; for inhibition at 10 µM / inhibition at 15 µM / inhibition at 25 µM / inhibition at 50 µM / MIC: Acinetobacter baumannii, NCTC13423
# In short: as §1
# [5] = system: P. aeruginosa ATCC 9027; assay: Antibacterial activity, pre-exposure; assay type: cell-based, Pseudomonas aeruginosa; conditions: for Average inhibition %, biofilms viability / Average inhibition %, planktonic cells viability / inhibition at 50 µM / inhibition at 100 µM / inhibition at 150 µM / inhibition at 200 µM: P. aeruginosa ATCC 9027, pre-exposure, ± SD; for inhibition at 50 µM / inhibition at 100 µM / inhibition at 150 µM / inhibition at 200 µM: Pseudomonas aeruginosa, ATCC9027
# In short: as §1
# [6] = 10 µM, read-out: Average inhibition %, biofilms biomass
# [7] = 10 µM, read-out: Average inhibition %, planktonic cells turbidity
# [8] = 15 µM, read-out: Average inhibition %, biofilms biomass
# [9] = 15 µM, read-out: Average inhibition %, planktonic cells turbidity
# [10] = 25 µM, read-out: Average inhibition %, biofilms biomass
# [11] = 25 µM, read-out: Average inhibition %, planktonic cells turbidity
# [12] = read-out: Average inhibition %, biofilms biomass
# [13] = read-out: Average inhibition %, planktonic cells turbidity
# [14] = 50 µM, read-out: Average inhibition %, biofilms biomass
# [15] = 50 µM, read-out: Average inhibition %, planktonic cells turbidity
smiles,measurement,setting,value
"CCCCCCCCCCc1ccc2nc(CC(N)(CO)CO)ccc2c1 [Compound 83, 2-Amino-2-[(6-decylquinolin-2-yl)methyl]propane-1,3-diol]",MIC,"[1]; lowest concentration with no visible growth (>90% inhibition of turbidity and viability of planktonic cells), 18 h, read-out: MIC S. aureus ATCC 25923",10 µM
same,inhibition at 5 µM,"[1]; 5 µM, read-out: Average inhibition %, biofilms biomass",37.3 ± 7.9%
same,inhibition at 5 µM,"[1]; 5 µM, read-out: Average inhibition %, planktonic cells turbidity",37.9 ± 5.1%
same,inhibition at 10 µM,[1]; [6],97.3 ± 0.8%
same,inhibition at 10 µM,[1]; [7],99.5 ± 0.2%
same,inhibition at 15 µM,[1]; [8],93.9 ± 1.4%
same,inhibition at 15 µM,[1]; [9],99.4 ± 0.1%
same,inhibition at 25 µM,[1]; [10],89.4 ± 1.4%
same,inhibition at 25 µM,[1]; [11],99 ± 0.2%
same,MIC,[1]; read-out: MIC (S. aureus),10 µM
same,"Average inhibition %, biofilms viability",[1]; 5 µM,34.6 ± 5.8%
same,"Average inhibition %, planktonic cells viability",[1]; 5 µM,6.9 ± 10.7%
same,"Average inhibition %, biofilms viability",[1]; 10 µM,99.6 ± 0.4%
same,"Average inhibition %, planktonic cells viability",[1]; 10 µM,99.6 ± 0%
same,"Average inhibition %, biofilms viability",[1]; 15 µM,99.8 ± 0.6%
same,"Average inhibition %, planktonic cells viability",[1]; 15 µM,99.6 ± 0%
same,"Average inhibition %, biofilms viability",[1]; 25 µM,99.6 ± 0.4%
same,"Average inhibition %, planktonic cells viability",[1]; 25 µM,99.7 ± 0%
same,"Average inhibition %, biofilms viability",[2]; 25 µM,16.8 ± 17.2%
same,"Average inhibition %, planktonic cells viability",[2]; 25 µM,14.1 ± 20.9%
same,"Average inhibition %, biofilms viability",[2]; 50 µM,34.4 ± 15.3%
same,"Average inhibition %, planktonic cells viability",[2]; 50 µM,22.7 ± 19.5%
same,"Average inhibition %, biofilms viability",[2]; 100 µM,56.6 ± 18.2%
same,"Average inhibition %, planktonic cells viability",[2]; 100 µM,80.3 ± 17.9%
same,"Average inhibition %, biofilms viability",[2]; 200 µM,58.6 ± 19.5%
same,"Average inhibition %, planktonic cells viability",[2]; 200 µM,88.3 ± 12.1%
same,inhibition at 25 µM,[2]; [12],31.7 ± 20.9%
same,inhibition at 25 µM,[2]; [13],27.1 ± 19.8%
same,inhibition at 50 µM,[2]; [12],50.3 ± 6.4%
same,inhibition at 50 µM,[2]; [13],28.3 ± 13.2%
same,inhibition at 100 µM,[2]; [12],71.3 ± 10.2%
same,inhibition at 100 µM,[2]; [13],64.4 ± 14%
same,inhibition at 200 µM,[2]; [12],71.5 ± 5.8%
same,inhibition at 200 µM,[2]; [13],65.3 ± 5.8%
same,MIC,[3],10 µM
same,"Average inhibition %, biofilms viability",[4]; 10 µM,0.7 ± 1.2%
same,"Average inhibition %, planktonic cells viability",[4]; 10 µM,8 ± 5.8%
same,"Average inhibition %, biofilms viability",[4]; 15 µM,1.2 ± 2.2%
same,"Average inhibition %, planktonic cells viability",[4]; 15 µM,7.2 ± 6.6%
same,"Average inhibition %, biofilms viability",[4]; 25 µM,5.6 ± 6.6%
same,"Average inhibition %, planktonic cells viability",[4]; 25 µM,3.1 ± 3.1%
same,"Average inhibition %, biofilms viability",[4]; 50 µM,68.9 ± 2.6%
same,"Average inhibition %, planktonic cells viability",[4]; 50 µM,95.2 ± 1.7%
same,inhibition at 10 µM,[4]; [6],6.4 ± 9.4%
same,inhibition at 10 µM,[4]; [7],0%
same,inhibition at 15 µM,[4]; [8],0%
same,inhibition at 15 µM,[4]; [9],0%
same,inhibition at 25 µM,[4]; [10],0%
same,inhibition at 25 µM,[4]; [11],11.8 ± 12.4%
same,inhibition at 50 µM,[4]; [14],10.4 ± 10.2%
same,inhibition at 50 µM,[4]; [15],88.3 ± 1.5%
same,MIC,"[4]; pre-exposure, Inactive = no activity up to 50 μM, > = some inhibition but no MIC reached, read-out: MIC A. baumannii NCTC 13423",> 50 µM
same,MIC,"[4]; supplementary molecular formula strings sheet, read-out: MIC (A. baumannii)",> 50 µM
same,"Average inhibition %, biofilms viability",[5]; 50 µM,12.2 ± 21.1%
same,"Average inhibition %, planktonic cells viability",[5]; 50 µM,10.5 ± 6.5%
same,"Average inhibition %, biofilms viability",[5]; 100 µM,0.5 ± 0.9%
same,"Average inhibition %, planktonic cells viability",[5]; 100 µM,14.8 ± 0.4%
same,"Average inhibition %, biofilms viability",[5]; 150 µM,2.6 ± 3.8%
same,"Average inhibition %, planktonic cells viability",[5]; 150 µM,20.2 ± 15%
same,"Average inhibition %, biofilms viability",[5]; 200 µM,1.1 ± 1%
same,"Average inhibition %, planktonic cells viability",[5]; 200 µM,16.3 ± 15.7%
same,inhibition at 50 µM,[5]; [14],6.4 ± 11.1%
same,inhibition at 50 µM,[5]; [15],35.2 ± 3%
same,inhibition at 100 µM,"[5]; 100 µM, read-out: Average inhibition %, biofilms biomass",2.1 ± 2.3%
same,inhibition at 100 µM,"[5]; 100 µM, read-out: Average inhibition %, planktonic cells turbidity",38.6 ± 10.1%
same,inhibition at 150 µM,"[5]; 150 µM, read-out: Average inhibition %, biofilms biomass",1.3 ± 2.3%
same,inhibition at 150 µM,"[5]; 150 µM, read-out: Average inhibition %, planktonic cells turbidity",34.8 ± 16.4%
same,inhibition at 200 µM,"[5]; 200 µM, read-out: Average inhibition %, biofilms biomass",3.7 ± 4.7%
same,inhibition at 200 µM,"[5]; 200 µM, read-out: Average inhibition %, planktonic cells turbidity",33.2 ± 7.3%
same,MIC P. aeruginosa ATCC 9027,"[5]; pre-exposure, Inactive = no activity up to 200 μM, > = some inhibition but no MIC reached",Inactive
